{
  "source": "patent US20110176998A1",
  "about": "“IMAGING AND THERAPY OF VIRUS-ASSOCIATED TUMORS” (THE JOHNS HOPKINS UNIVERSITY, priority 2007, published 2011)",
  "key": {"[1]": {"system": "EBV viral DNA copy number", "test": "real-time PCR for EBV viral DNA copy number (viral replication)", "type": "cell-based, Epstein-Barr virus", "method": "Genomic DNA from treated cells were extracted with the QIAamp DNA mini kit (Qiagen, CA) according to the manufacturer's instructions. PCRs were set up in a volume of 50 μL with a TaqMan PCR core reagent kit (Perkin-Elmer Corp., Branchburg, N.J.). Fluorescent probes were custom synthesized by Perkin-Elmer Applied Biosystems. PCR primers were synthesized by Gibco BRL (Frederick, Md.). Each reaction contained 5 μL of 10× buffer A (4 mM MgCl2), amplification primers (300 nM), fluorescent probe (25 nM), dATP, dCTP, and dGTP (200 μM each), dUTP (400 uM), 1.25 U of AmpliTaq Gold, and 0.5 U of AmpErase uracil N-glycosylase. Extracted genomic DNA was used for amplification. DNA amplification was carried out in a 96-well reaction plate in a Perkin-Elmer Applied Biosystems 7700 sequence detector. Each sample was analyzed in duplicate, and multiple negative water blanks were included in each analysis. A calibration curve was run in parallel and in duplicate with each analysis, with DNA extracted from the EBV-positive cell line Namalwa as a standard.\nThe EBV genome was quantified by real-time PCR with the ICycler system (Biorad, Hercules, Calif.). Template DNA was extracted with a mini blood DNA Kit (Qiagen, Valencia, Calif.). […]. A calibration curve was run in parallel and in duplicate with each analysis, using DNA extracted from the diploid EBV-positive cell line Namalwa containing two integrated viral genomes per cell as a standard. Amplification data were collected with an MyiQ single color real-time PCR Detector (Biorad) and analyzed with the MyiQ software developed by Biorad."}, "BZLF1 protein (ZTA)": {"system": "BZLF1 protein (ZTA)", "test": "Western blot / immunoblot for ZTA (BZLF1 protein) in EBV positive cell lines", "type": "cell-based, Epstein-Barr virus", "settings": "Rael cells", "method": "To detect expression of the EBV-TK or EBV-ZTA, total cell protein was first extracted by treating cells with lysis buffer (0.05 M Tris, pH 7.6, 0.15 M NaCl, 1% triton-X 100, 2 mM EDTA) containing protease inhibitors for 10 minutes at 4° C. The following reagents were added to 1 mL of lysis buffer: 2 μL leupeptin (5 mg/mL), 1 μL 0.2 M Na3VO4, 1 μL NaF, 1 μL aprotinin (10 mg/ml), 1 μL, pepstatin (2 mM), and 10 μL PMSF (100 mM) for 10 minutes at 4° C. Following centrifugation, the supernatant was collected and stored at −80° C. Protein concentration was determined with the BCA Protein Assay Kit (Pierce, Rockford, Ill.) according to the manufacturer's instructions. A 10 μg aliquot of total cellular protein was fractionated on a 7.5% SDS-polyacrylamide gel. Proteins were transferred to PROTRAN nitrocellulose membrane (Schleicher & Schuell, Keene, N.H.). The membranes were blocked with 5% blotting grade non-fat dry milk (Bio-rad, Hercules, Calif.) in PBS with 0.1% TWEEN-20 (PBS-T) at 4° C. overnight. The membranes were then washed with PBS-T twice followed by incubation with 1/1,000-diluted rabbit anti-TK sera from a rabbit immunized with a synthetic EBV-TK peptide ([…]) or anti-ZTA monoclonal antibody (Argene, North Massapequa, N.Y.) at room temperature for 1 hour. After washing, the membranes were incubated with HRP-conjugated goat anti-rabbit IgG antibodies or HRP-conjugated goat anti-mouse IgG antibodies (Amersham Pharmacia Biotech, Piscataway, N.J.) at a 1/5,000 dilution in PBS-T at room temperature for 1 hour. The membranes were washed twice and proteins were detected with ECL Western Blotting Detection reagents (Amersham Pharmacia Biotech). The membranes were exposed to X-OMAT film (Kodak, Rochester, N.Y.) at room temperature.\nFor lytic induction studies, cells were seeded at 10^6/ml, and treated with test compounds for 48 hours. Control untreated cells were incubated in parallel.\nCells were washed with PBS twice. Total cellular protein was extracted with lysis buffer. Proteins were electrophoresed in polyacrylamide and then transferred onto a PROTRAN nitrocellulose membrane (Schleicher&Schuell, Keene, N.H.). Blots were probed with primary antibody (Ab) overnight at 4° C. HRP-conjugated secondary Ab was added after washing and detected by an enhanced chemiluminescence system (ECL) (Amersham). The following antibodies were used: anti-ZTA (Argene), anti-f3-actin (Sigma), anti-mouse (Sigma)."}, "EBV-TK": {"system": "EBV-TK", "test": "immunoblot for EBV-TK expression", "type": "cell-based, Epstein-Barr virus", "settings": "Rael cells; immunoblot", "method": "To detect expression of the EBV-TK or EBV-ZTA, total cell protein was first extracted by treating cells with lysis buffer (0.05 M Tris, pH 7.6, 0.15 M NaCl, 1% triton-X 100, 2 mM EDTA) containing protease inhibitors for 10 minutes at 4° C. The following reagents were added to 1 mL of lysis buffer: 2 μL leupeptin (5 mg/mL), 1 μL 0.2 M Na3VO4, 1 μL NaF, 1 μL aprotinin (10 mg/ml), 1 μL, pepstatin (2 mM), and 10 μL PMSF (100 mM) for 10 minutes at 4° C. Following centrifugation, the supernatant was collected and stored at −80° C. Protein concentration was determined with the BCA Protein Assay Kit (Pierce, Rockford, Ill.) according to the manufacturer's instructions. A 10 μg aliquot of total cellular protein was fractionated on a 7.5% SDS-polyacrylamide gel. Proteins were transferred to PROTRAN nitrocellulose membrane (Schleicher & Schuell, Keene, N.H.). The membranes were blocked with 5% blotting grade non-fat dry milk (Bio-rad, Hercules, Calif.) in PBS with 0.1% TWEEN-20 (PBS-T) at 4° C. overnight. […] The membranes were washed twice and proteins were detected with ECL Western Blotting Detection reagents (Amersham Pharmacia Biotech). […]"}, "[2]": {"system": "recombinant EBV encoding GFP (BX-1) in AKATA-BX1 cells", "test": "GFP whole virus assay in AKATA-BX1 cells", "settings": "for GFP signal: AKATA-BX1 cells"}, "Zta promoter": {"system": "Zta promoter", "type": "cell-based, Epstein-Barr virus"}, "[3]": {"system": "EBV(+) Burkitt's lymphoma (Rael)", "test": "tumor growth, EBV(+) Burkitt's lymphoma (Rael) xenografts", "type": "in vivo, SCID mice", "settings": "bortezomib without [131I]FIAU", "method": "Therefore, an evaluation of a therapeutic isotope was carried out. As described above, SCID mice engrafted with EBV Burkitt's lymphoma xenografts received either buffer or bortezomib followed the next day by treatment with [^131I]FIAU or no treatment. […] Thus, bortezomib allowed targeting of [^131I]FIAU with therapeutic effect. Other proteasome inhibitors are also likely to be active. Several are in clinical trial.\nBiostatistics. Linear regression and curve fitting were undertaken carried using GraphPad Prism software version 5.00 for Windows, GraphPad Software, San Diego Calif. USA, www.graphpad.com."}, "EBV(+) Akata cells": {"system": "EBV(+) Akata cells", "test": "entry of EBV(+) Akata cells into the lytic cycle", "settings": "20 nM, 48 hours"}},
  "data": [
    {"compound": "CC(C)C[C@H](NC(=O)[C@H](Cc1ccccc1)NC(=O)c1cnccn1)B(O)O", "note": "[Bortezomib]", "values": [
      {"measurement": "increase of EBV viral DNA copy number", "setting": "[1]; Rael cells, 20 nM for 8 hours, DNA collected after 48 hours", "result": 20, "unit": "fold"},
      {"measurement": "viral copy number", "setting": "[1]; real time DNA PCR, Rael", "result": "increased"},
      {"measurement": "ZTA expression", "setting": "BZLF1 protein (ZTA)", "result": "induced"},
      {"measurement": "EBV-TK expression", "setting": "EBV-TK", "result": "induced"},
      {"measurement": "GFP signal", "setting": "[2]", "result": "dose dependent"},
      {"measurement": "GFP signal", "setting": "[2]; 10 nM", "result": "induced GFP signal"},
      {"measurement": "EC50 for inducing lytic infection", "setting": "[2]; GFP assay", "result": "nanomolar scale"},
      {"measurement": "known lytic inducer re-identified / hit in lymphoma cell line/whole virus assay", "setting": "[2]; library screen at 10 uM", "result": "most prominent hit"},
      {"measurement": "Zta promoter luciferase activity", "setting": "Zta promoter; AGS cells", "result": "increases in a bortezomib dose-dependent manner"},
      {"measurement": "induction of BZLF1 promoter", "setting": "Zta promoter; AGS cells, 10 nM", "result": "induced"},
      {"measurement": "known lytic inducer re-identified / hit in epithelial promoter reporter assay", "setting": "Zta promoter; library screen at 10 uM", "result": "most prominent hit"},
      {"measurement": "EC50 for inducing lytic infection", "setting": "Zta promoter; luciferase assay", "result": "nanomolar scale"},
      {"measurement": "tumor growth", "setting": "[3]", "result": "slowed tumor growth"},
      {"measurement": "cells entered the lytic cycle", "setting": "EBV(+) Akata cells", "result": 67, "unit": "%"}
    ]}
  ]
}
